Values joined by “and” are separate entries in the source; they are usually repeats but may differ in a detail not shown here. Equal entries are not always repeated. Where two headings read alike, the source gives them in different places.
Legend:
[1] = Metabolism of DB868 in vervet monkey liver microsomes; assay type: in vitro ADME; details: incubation of 10 µM DB868; HPLC/UV; formation confirmed by fluorescence and mass spectrometric detection
Method: DB868 metabolism was studied in male vervet monkey liver microsomes (custom-prepared by XenoTech, LLC, Lenexa, KS, USA) by adapting a previously published method. Briefly, incubation mixtures contained 10 µM DB868, 0.5 mg/mL monkey liver microsomes, and 3.3 mM MgCl2 in 100 mM phosphate buffer (pH 7.4). Reactions were initiated by the addition of NADPH (1 mM final concentration). Control incubations were carried out without NADPH, DB868, or liver microsomes. Aliquots (100 µL) of the reaction mixtures were removed at 0, 5, 10, 15, 30, 60 and 120 min and mixed with 100 µL of ice-cold acetonitrile. After centrifugation to pellet precipitated proteins, the supernatants were analyzed by HPLC/UV and fluorescence using the method previously described for pafuramidine (DB289) and furamidine (DB75). Metabolite identification was performed by comparing retention times to those of synthetic standards for M1 (DB1679), M2 (DB840), M3 (DB1712), and DB829. DB868 and its metabolites were quantified using a calibration curve (0.1–10 µM) generated using synthetic standards.

[2] = Pharmacokinetics in infected vervet monkeys (first stage HAT); assay type: in vivo, vervet monkey; details: for AUClast: last measurable concentration varied (2–133 days)
[3] = system: T. b. rhodesiense STIB900; parameters: method as in PMID 19620327; details: in vitro; cited from earlier work
[4] = system: T. b. rhodesiense STIB900; parameters: method as in PMID 19620327; details: intraperitoneal administration; cited from earlier work
[5] = system: T. b. brucei GVR35; parameters: method as in PMID 19620327; details: intraperitoneal administration; cited from earlier work
[6] = system: T. b. brucei s427 trypanosomes; parameters: method as in PMID 21402852; details: 2.7 µM; cited from earlier work
[7] = Pharmacokinetics in uninfected vervet monkeys; details: for half-life: po, geometric mean terminal elimination half-life
[8] = system: T. b. rhodesiense KETRI 2537; parameters: method as in PMID 19064893; details: oral, for 5 days; first stage HAT monkey model; cited from earlier work
[9] = parameters: method as in earlier work; details: cited from earlier work
[10] = parameters: method as in PMID 20721830; details: cited from earlier work
[11] = oral administration, cited from earlier work
[12] = oral DB868 10 mg/kg group, infected
[13] = oral DB868 20 mg/kg group, infected
[14] = oral DB868 20 mg/kg×5 days, infected, individual monkeys
[15] = after final oral dose of DB868 10 mg/kg×10 days, uninfected, individual monkeys
[16] = after final oral dose of DB868 30 mg/kg×10 days, uninfected, individual monkeys

For `N=C(N)c1ccc(-c2ccc(-c3ccc(C(=N)N)cn3)o2)nc1` [DB829, 2,5-bis(5-amidino-2-pyridyl)furan], the “detection of active compound formed from DB868” value [1] was “at the limit of detection in UV mode”, the Cmax ([2]; after final oral dose of DB868 3 mg/kg×7 days, first stage HAT, individual monkeys 638, 643, read-out: Cmax) was 230 nM and the Cmax ([2]; after final oral dose of DB868 10 mg/kg×7 days, first stage HAT, individual monkeys 675, 691, read-out: Cmax) was 200 nM. It also gave a Tmax ([2]; after final oral dose of DB868 20 mg/kg×5 days, infected, individual monkeys) of 4.08 h, a Tmax ([2]; monkey, plasma, po, 3 mg/kg, oral DB868 3 mg/kg group, infected, read-out: median Tmax (converted)) of 4 h and a Cmax ([2]; monkey, plasma, po, 3 mg/kg/day, oral DB868 3 mg/kg/day×7 days, infected, read-out: median Cmax) of 170 nM. It also gave a Tmax ([2]; monkey, plasma, po, 10 mg/kg, oral DB868 10 mg/kg group, infected, read-out: median Tmax (converted)) of 24 h, a Cmax ([2]; monkey, plasma, po, 10 mg/kg/day, after final oral dose of DB868 10 mg/kg×7 days, first stage HAT, individual monkeys 675, 691, read-out: Cmax) of 210 nM and a Cmax ([2]; monkey, plasma, po, 10 mg/kg/day, oral DB868 10 mg/kg/day×7 days, infected, read-out: median Cmax) of 205 nM. The half-life ([2]; monkey, plasma, po, 10 mg/kg/day, oral DB868 10 mg/kg×7 days, infected, monkey 691, read-out: t1/2 (terminal elimination half-life) (converted)) was 600 h, the Tmax ([2]; monkey, plasma, po, 20 mg/kg, oral DB868 20 mg/kg group, infected, read-out: median Tmax (converted)) was 4 h and the Cmax ([2]; monkey, plasma, po, 20 mg/kg/day, after final oral dose of DB868 20 mg/kg×5 days, first stage HAT, individual monkeys 585, 658, read-out: Cmax) was 370 nM. The Tmax ([2]; monkey, plasma, po, 20 mg/kg/day, after final oral dose of DB868 20 mg/kg×5 days, infected, individual monkeys, read-out: Tmax (converted)) was 4.08 h, the Cmax ([2]; monkey, plasma, po, 20 mg/kg/day, oral DB868 20 mg/kg/day×5 days, infected, read-out: median Cmax) was 435 nM and the “median Cmax relative to IC50 (14 nmol/L) against T. b. rhodesiense STIB900” value (“median Cmax relative to IC50 (14 nmol/L)” below) ([2]; oral DB868 3 mg/kg/day for 7 days, infected) was 12 fold. The AUClast ([2]; oral DB868 3 mg/kg×7 days, infected, individual monkeys) was 160 nmol·days/L and 950 nmol·days/L, the “mean AUClast relative to 3 mg/kg group” value [2, 12] was 7 fold and the “median Cmax relative to 3 mg/kg group” value [2, 12] was 1.2 fold. For the same compound, the “median Cmax relative to IC50 (14 nmol/L)” value ([2]; oral DB868 10 mg/kg/day for 7 days, infected) was 15 fold, the AUClast ([2]; oral DB868 10 mg/kg×7 days, infected, individual monkeys) was 4000 nmol·days/L and 3500 nmol·days/L and the “AUC0-∞” value ([2]; oral DB868 10 mg/kg×7 days, infected, monkey 691) was 3900 nmol·days/L. The “mean AUClast relative to 3 mg/kg group” value [2, 13] was 10 fold, the “median Cmax relative to 3 mg/kg group” value [2, 13] was 2.6 fold and the “median Cmax relative to IC50 (14 nmol/L)” value ([2]; oral DB868 20 mg/kg/day for 5 days, infected) was 31 fold. For the same compound, the “AUC0-∞” value [2, 14] was 10000 nmol·days/L and 5300 nmol·days/L, the “t1/2 (terminal elimination half-life)” value [2, 14] was 85 days and 24 days and the AUClast [2, 14] was 7300 nmol·days/L and 4100 nmol·days/L. The “median AUC0-∞ of 20 mg/kg group relative to monkey 691 (10 mg/kg group)” value ([2]; oral DB868, infected) was “twice”, the “median terminal elimination half-life of 20 mg/kg group relative to monkey 691 (10 mg/kg group)” value ([2]; oral DB868, infected) was “twice” and the IC50 [3] was 14 nM. The curative [4] was 100%, the curative [5] was 100% and the “exposure required to kill trypanosomes in culture” value [6] was 24 h. The “AUC0-∞” value [7, 15] was 3700 nmol/L•day (2×) and 4100 nmol/L•day and 2400 nmol/L•day, the AUClast [7, 15] was 3000 nmol/L•day and 2800 nmol/L•day and 2100 nmol/L•day (2×) and the “t1/2 (terminal elimination half-life)” value [7, 15] was 30 day (2×) and 55 day and 18 day. The “AUC0-∞” value [7, 16] was 5600 nmol·days/L and 7000 nmol·days/L and 6200 nmol·days/L and 12100 nmol·days/L, the AUClast [7, 16] was 4700 nmol·days/L and 5700 nmol·days/L and 4600 nmol·days/L and 7100 nmol·days/L and the concentration at 4 h ([7]; both, monkey, in vivo, 10 mg/kg, C4 h, plasma concentration at 4 h after final (10th) oral dose of DB868 10 mg/kg×10 days, uninfected, individual monkeys 643, 659, 675, 677) was 240 nM. It also gave a concentration at 4 h ([7]; both, monkey, in vivo, 10 mg/kg/day, geometric mean C4 h, oral DB868 10 mg/kg/day×10 days, uninfected, n = 4) of 185 nM, a concentration at 4 h ([7]; both, monkey, in vivo, 30 mg/kg, C4 h, plasma concentration at 4 h after final (10th) oral dose of DB868 30 mg/kg×10 days, uninfected, individual monkeys 546, 567, 668, 679) of 440 nM and a concentration at 24 h ([7]; both, monkey, in vivo, 30 mg/kg, C24 h, plasma, 24 h after final oral dose of DB868 30 mg/kg×10 days, uninfected, individual monkeys) of 360 nM. It also gave a concentration at 4 h ([7]; both, monkey, in vivo, 30 mg/kg/day, geometric mean C4 h, oral DB868 30 mg/kg/day×10 days, uninfected, n = 4) of 320 nM, a half-life ([7]; both, monkey, in vivo, 10 mg/kg/day, oral DB868 10 mg/kg/day×10 days, uninfected (second of 'respectively'; agrees with Table 1)) of 744 h and a half-life ([7]; both, monkey, in vivo, 30 mg/kg/day, oral DB868 30 mg/kg/day×10 days, uninfected (first of 'respectively'; agrees with Table 1)) of 696 h. The “geometric mean C4 h relative to IC50 (14 nmol/L) against T. b. rhodesiense STIB900” value ([7]; oral DB868 10 mg/kg/day×10 days, uninfected) was 13 fold, the “geometric mean C4 h relative to IC50 (14 nmol/L) against T. b. rhodesiense STIB900” value ([7]; oral DB868 30 mg/kg/day×10 days, uninfected) was 23 fold and the “time plasma concentrations remained >100 nmol/L after last DB868 dose” value ([7]; oral DB868, in some monkeys (Figures 6 and 8, uninfected and infected)) was “up to 7 days post-LDD”. For the same compound, the “geometric mean AUC0-∞, 30 mg/kg group relative to 10 mg/kg group” value ([7]; oral DB868×10 days, uninfected) was 2.2 fold, the “geometric mean AUClast, 30 mg/kg group relative to 10 mg/kg group” value ([7]; oral DB868×10 days, uninfected) was 2.2 fold and the C4 h ([7]; plasma concentration at 4 h after final (10th) oral dose of DB868 10 mg/kg×10 days, uninfected, individual monkeys 643, 659, 675, 677) was 160 nM and 180 nM and 170 nM. The C4 h ([7]; plasma concentration at 4 h after final (10th) oral dose of DB868 30 mg/kg×10 days, uninfected, individual monkeys 546, 567, 668, 679) was 290 nM and 300 nM and 270 nM, the C24 h ([7]; plasma, 24 h after final oral dose of DB868 10 mg/kg×10 days, uninfected, individual monkeys, BLQ = below limit of quantitation) was 140 nM and 260 nM and 120 nM and 170 nM and the C24 h ([7]; plasma, 24 h after final oral dose of DB868 30 mg/kg×10 days, uninfected, individual monkeys) was 210 nM and 280 nM and 340 nM.
For `CONC(=N)c1ccc(-c2ccc(-c3ccc(C(=N)NOC)cc3)o2)cc1` [pafuramidine, 2,5-bis(4-amidinophenyl)furan-bis-O-methylamidoxime], the “dose required to achieve complete cure” value [8] is given as 10 mg/kg, the “increase in KIM-1” value ([9]; oral 12 mg/kg/day×28 days, one week post-LDD) is given as 13 fold and the “increase in ALT compared to untreated rats” value ([9]; rats, 12 mg/kg/day for 4 weeks) is given as 18 fold. For the same compound, the liver injury ([10]; extended phase I clinical trial in humans) was “transient liver injury”, the “patients with unexpected severe kidney injury” value ([10]; five patients) was roughly 6% and the “classical kidney injury biomarkers, BUN and serum creatinine” value ([11]; mouse diversity panel) was “remained unchanged”. The “urinary kidney injury molecule-1 (KIM-1)” value ([11]; sensitive strains of 34 inbred mouse strains) was “marked elevations”.
